Results: ChEMBL document CHEMBL5634096, “Design, synthesis and bioevaluation of PI3Kα-selective inhibitors as potential colorectal cancer drugs” (Eur J Med Chem, 2023)
Calls of active or inactive are those of the source. No cut-off for these calls is given here.

Key:
[1] = test system: HCT-116; experiment: Induction of cell cycle arrest in human HCT-116 cells assessed as decrease in accumulation of cells at S phase at 3 to 12 uM incubated for 48 hrs by PI staining based flow cytometry analysis (reference value: 46.9 %); type: functional; parameters: scale not given: the % may be the effect or the level left; details: dose 3-12 µM
[2] = test system: SW-620; experiment: Antiproliferative activity against human SW-620 cells assessed as reduction in cell viability incubated for 24 to 48 hrs by CCK-8 assay; type: functional, cell-based
[3] = Metabolic stability in artificial gastrointestinal fluid assessed as compound remaining measured upto 8 hrs by LC-MS/MS analysis; type: ADME
[4] = test system: K562; experiment: Antiproliferative activity against human K562 cells assessed as reduction in cell viability at 10 uM incubated for 24 to 48 hrs by CCK-8 assay; type: functional, cell-based; details: time lower […], time upper 48.0 hrs
[5] = test system: 5637; experiment: Antiproliferative activity against human 5637 cells assessed as reduction in cell viability at 10 uM incubated for 24 to 48 hrs by CCK-8 assay; type: functional, cell-based; details: time lower […], time upper 48.0 hrs
[6] = Cytotoxicity against human MCF-10A cells assessed as reduction in cell viability incubated for 24 to 48 hrs by CCK-8 assay; type: toxicity, cell-based
[7] = test system: GBC-SD; experiment: Antiproliferative activity against human GBC-SD cells assessed as reduction in cell viability at 10 uM incubated for 24 to 48 hrs by CCK-8 assay; type: functional, cell-based; details: time lower […], time upper 48.0 hrs
[8] = target: Cytochrome P450 2D6 (Homo sapiens, UniProt P10635); experiment: Inhibition of CYP2D6 in human liver microsomes using dextromethorphan as substrate pre-incubated for 30 mins followed by substrate addition and measured after 15 mins in presence of NADPH by LC/MS analysis; type: ADME, Microsome
Cytochrome P450 2D6, sequence (P10635 whole entry): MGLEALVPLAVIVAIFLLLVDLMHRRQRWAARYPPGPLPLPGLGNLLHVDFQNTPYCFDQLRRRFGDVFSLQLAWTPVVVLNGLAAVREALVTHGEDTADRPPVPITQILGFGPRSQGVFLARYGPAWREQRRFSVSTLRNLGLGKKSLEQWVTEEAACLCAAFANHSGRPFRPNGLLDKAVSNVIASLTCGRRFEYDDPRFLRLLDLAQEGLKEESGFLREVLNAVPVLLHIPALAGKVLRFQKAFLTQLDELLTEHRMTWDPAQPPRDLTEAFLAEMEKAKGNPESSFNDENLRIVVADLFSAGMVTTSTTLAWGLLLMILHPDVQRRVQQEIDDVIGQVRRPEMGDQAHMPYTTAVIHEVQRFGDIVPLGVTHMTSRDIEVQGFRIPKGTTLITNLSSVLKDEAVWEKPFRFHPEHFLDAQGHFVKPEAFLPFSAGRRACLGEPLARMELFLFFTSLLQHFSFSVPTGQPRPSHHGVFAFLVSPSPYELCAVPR

[9] = test system: A673; experiment: Antiproliferative activity against human A673 cells assessed as reduction in cell viability at 10 uM incubated for 24 to 48 hrs by CCK-8 assay; type: functional, cell-based; details: time lower […], time upper 48.0 hrs
[10] = MRT (0 to t) in Sprague-Dawley rat at 5 mg/kg, iv measured upto 24 hrs by LC-MS analysis; type: ADME, organism-based; details: in vivo
[11] = target: Serine/threonine-protein kinase 17A (Homo sapiens) (UniProt Q9UEE5); experiment: Inhibition of human DRAK1 at 1 uM
Serine/threonine-protein kinase 17A (Homo sapiens), sequence (Q9UEE5 whole entry): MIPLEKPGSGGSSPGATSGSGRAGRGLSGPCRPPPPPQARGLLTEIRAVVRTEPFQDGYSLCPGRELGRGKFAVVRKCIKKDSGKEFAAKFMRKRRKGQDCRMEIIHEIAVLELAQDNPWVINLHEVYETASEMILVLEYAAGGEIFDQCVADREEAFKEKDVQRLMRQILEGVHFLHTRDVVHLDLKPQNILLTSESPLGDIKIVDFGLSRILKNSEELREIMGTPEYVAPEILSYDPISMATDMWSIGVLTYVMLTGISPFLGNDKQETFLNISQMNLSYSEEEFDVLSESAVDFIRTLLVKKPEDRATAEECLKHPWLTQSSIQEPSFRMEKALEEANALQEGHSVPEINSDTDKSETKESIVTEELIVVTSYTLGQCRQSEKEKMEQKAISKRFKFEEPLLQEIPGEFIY

[12] = test system: MCF7; experiment: Antiproliferative activity against human MCF7 cells expressing PIK3CA with E545K mutation assessed as reduction in cell viability incubated for 24 to 48 hrs by CCK-8 assay; type: functional, cell-based
[13] = test system: MDA-MB-231; experiment: Antiproliferative activity against human MDA-MB-231 cells assessed as reduction in cell viability incubated for 24 to 48 hrs by CCK-8 assay; type: functional, cell-based
[14] = test system: CAL-62; experiment: Antiproliferative activity against human CAL-62 cells assessed as reduction in cell viability at 10 uM incubated for 24 to 48 hrs by CCK-8 assay; type: functional, cell-based; details: time lower […], time upper 48.0 hrs
[15] = target: Serine/threonine-protein kinase mTOR (Homo sapiens, UniProt P42345); experiment: Inhibition of mTOR (unknown origin) by lance ultra assay
[16] = test system: HCT-116; experiment: Antiproliferative activity against human HCT-116 cells assessed as inhibition of Akt phosphorylation incubated for 48 hrs by Western blotting analysis; type: functional, cell-based; details: dose 3-12 µM
[17] = test system: HeLa; experiment: Antiproliferative activity against human HeLa cells assessed as reduction in cell viability at 10 uM incubated for 24 to 48 hrs by CCK-8 assay; type: functional, cell-based; details: time lower […], time upper 48.0 hrs
[18] = test system: A-375; experiment: Antiproliferative activity against human A-375 cells assessed as reduction in cell viability at 10 uM incubated for 24 to 48 hrs by CCK-8 assay; type: functional, cell-based; details: time lower […], time upper 48.0 hrs
[19] = test system: HCT-116; experiment: Inhibition of cell migration human HCT-116 cells incubated for 48 hrs by crystal violet staining based transwell assay; type: functional; details: dose 3-12 µM
[20] = MRT (0 to infinity) in Sprague-Dawley rat at 5 mg/kg, iv measured upto 24 hrs by LC-MS analysis; type: ADME, organism-based; details: in vivo
[21] = target: Receptor-type tyrosine-protein kinase FLT3 (Homo sapiens) (UniProt P36888); experiment: Inhibition of human FLT3 at 1 uM
[22] = test system: HCT-116; experiment: Antiproliferative activity against human HCT-116 cells assessed as inhibition of colony formation at 3 to 12 uM incubated for 48 hrs by crystal violet staining based assay; type: functional, cell-based; details: dose 3-12 µM
[23] = Half life in Sprague-Dawley rat at 5 mg/kg, iv measured upto 24 hrs by LC-MS analysis; type: ADME, organism-based; details: in vivo
[24] = test system: MCF7; experiment: Antiproliferative activity against human MCF7 cells assessed as reduction in cell viability incubated for 24 to 48 hrs by CCK-8 assay; type: functional, cell-based
[25] = Cmax in Sprague-Dawley rat at 5 mg/kg, iv measured upto 24 hrs by LC-MS analysis; type: ADME, organism-based; details: in vivo
[26] = test system: HCT-116; experiment: Induction of cell cycle arrest in human HCT-116 cells assessed as decrease in accumulation of cells at G2/M phase at 3 to 12 uM incubated for 48 hrs by PI staining based flow cytometry analysis (reference value: 16.5 %); type: functional; parameters: scale not given: the % may be the effect or the level left; details: dose 3-12 µM
[27] = test system: SF-126; experiment: Antiproliferative activity against human SF-126 cells assessed as reduction in cell viability at 10 uM incubated for 24 to 48 hrs by CCK-8 assay; type: functional, cell-based; details: time lower […], time upper 48.0 hrs
[28] = target: Cytochrome P450 2C19 (Homo sapiens, UniProt P33261); experiment: Inhibition of CYP2C19 in human liver microsomes using omeprazole as substrate pre-incubated for 30 mins followed by substrate addition and measured after 15 mins in presence of NADPH by LC/MS analysis; type: ADME, Microsome
Cytochrome P450 2C19, sequence (P33261 whole entry): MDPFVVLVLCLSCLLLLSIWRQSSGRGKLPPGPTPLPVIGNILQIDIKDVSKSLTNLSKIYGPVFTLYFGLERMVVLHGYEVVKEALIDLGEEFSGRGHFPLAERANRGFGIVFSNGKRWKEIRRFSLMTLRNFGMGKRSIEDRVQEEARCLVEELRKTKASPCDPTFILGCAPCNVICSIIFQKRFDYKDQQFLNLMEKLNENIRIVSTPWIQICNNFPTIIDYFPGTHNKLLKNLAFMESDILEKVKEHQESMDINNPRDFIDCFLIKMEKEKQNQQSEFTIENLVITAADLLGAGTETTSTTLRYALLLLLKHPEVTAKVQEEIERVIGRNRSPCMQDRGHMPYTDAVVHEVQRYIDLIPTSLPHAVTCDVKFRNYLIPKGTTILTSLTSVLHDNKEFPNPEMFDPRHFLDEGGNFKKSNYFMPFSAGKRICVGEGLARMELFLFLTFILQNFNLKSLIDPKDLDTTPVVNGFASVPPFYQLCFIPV

[29] = test system: HCT-116; experiment: Antiproliferative activity against human HCT-116 cells assessed as inhibition of ERK1/2 phosphorylation incubated for 48 hrs by Western blotting analysis; type: functional, cell-based; details: dose 3-12 µM
[30] = test system: L02; experiment: Cytotoxicity activity against human L02 cells assessed as reduction in cell viability at 10 uM incubated for 24 to 48 hrs by CCK-8 assay; type: toxicity, cell-based; details: l02, 10 µM, time 24-48 hrs
[31] = target: Cytochrome P450 2C9 (Homo sapiens, UniProt P11712); experiment: Inhibition of CYP2C9 in human liver microsomes using tolbutamide as substrate pre-incubated for 30 mins followed by substrate addition and measured after 15 mins in presence of NADPH by LC/MS analysis; type: ADME, Microsome
Cytochrome P450 2C9, sequence (P11712 whole entry): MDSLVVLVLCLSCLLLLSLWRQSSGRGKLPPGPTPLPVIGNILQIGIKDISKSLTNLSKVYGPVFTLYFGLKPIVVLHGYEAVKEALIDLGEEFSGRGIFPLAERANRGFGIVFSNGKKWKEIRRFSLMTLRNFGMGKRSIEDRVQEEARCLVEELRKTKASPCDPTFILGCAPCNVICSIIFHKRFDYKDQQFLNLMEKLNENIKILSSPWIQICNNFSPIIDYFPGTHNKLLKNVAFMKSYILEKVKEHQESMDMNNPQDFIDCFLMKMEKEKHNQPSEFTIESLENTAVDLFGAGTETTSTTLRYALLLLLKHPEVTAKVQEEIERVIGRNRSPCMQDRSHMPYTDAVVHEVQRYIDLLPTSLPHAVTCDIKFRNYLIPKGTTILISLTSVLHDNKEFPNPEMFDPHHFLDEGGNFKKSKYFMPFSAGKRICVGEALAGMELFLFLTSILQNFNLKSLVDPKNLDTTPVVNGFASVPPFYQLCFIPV

[32] = test system: HCT-116; experiment: Antiproliferative activity against human HCT-116 cells assessed as reduction in cell viability incubated for 24 to 48 hrs by CCK-8 assay; type: functional, cell-based
[33] = test system: HCT-116; experiment: Induction of apoptosis in human HCT-116 cells assessed as increased total apoptotic cells at 12 uM incubated for 48 hrs by Annexin V-FITC and propidium iodide staining based flow cytometry analysis (reference value: 4.22 %); type: functional
[34] = test system: HCT-116; experiment: Inhibition of cell invasion human HCT-116 cells incubated for 48 hrs by crystal violet staining based transwell assay; type: functional; details: dose 3-12 µM
[35] = target: Phosphatidylinositol 4,5-bisphosphate 3-kinase catalytic subunit gamma isoform (Homo sapiens, UniProt P48736); experiment: Inhibition of PI3Kgamma (unknown origin) by ADP-Glo luminescent kinase assay
Phosphatidylinositol 4,5-bisphosphate 3-kinase catalytic subunit gamma isoform, sequence (P48736 whole entry, canonical isoform): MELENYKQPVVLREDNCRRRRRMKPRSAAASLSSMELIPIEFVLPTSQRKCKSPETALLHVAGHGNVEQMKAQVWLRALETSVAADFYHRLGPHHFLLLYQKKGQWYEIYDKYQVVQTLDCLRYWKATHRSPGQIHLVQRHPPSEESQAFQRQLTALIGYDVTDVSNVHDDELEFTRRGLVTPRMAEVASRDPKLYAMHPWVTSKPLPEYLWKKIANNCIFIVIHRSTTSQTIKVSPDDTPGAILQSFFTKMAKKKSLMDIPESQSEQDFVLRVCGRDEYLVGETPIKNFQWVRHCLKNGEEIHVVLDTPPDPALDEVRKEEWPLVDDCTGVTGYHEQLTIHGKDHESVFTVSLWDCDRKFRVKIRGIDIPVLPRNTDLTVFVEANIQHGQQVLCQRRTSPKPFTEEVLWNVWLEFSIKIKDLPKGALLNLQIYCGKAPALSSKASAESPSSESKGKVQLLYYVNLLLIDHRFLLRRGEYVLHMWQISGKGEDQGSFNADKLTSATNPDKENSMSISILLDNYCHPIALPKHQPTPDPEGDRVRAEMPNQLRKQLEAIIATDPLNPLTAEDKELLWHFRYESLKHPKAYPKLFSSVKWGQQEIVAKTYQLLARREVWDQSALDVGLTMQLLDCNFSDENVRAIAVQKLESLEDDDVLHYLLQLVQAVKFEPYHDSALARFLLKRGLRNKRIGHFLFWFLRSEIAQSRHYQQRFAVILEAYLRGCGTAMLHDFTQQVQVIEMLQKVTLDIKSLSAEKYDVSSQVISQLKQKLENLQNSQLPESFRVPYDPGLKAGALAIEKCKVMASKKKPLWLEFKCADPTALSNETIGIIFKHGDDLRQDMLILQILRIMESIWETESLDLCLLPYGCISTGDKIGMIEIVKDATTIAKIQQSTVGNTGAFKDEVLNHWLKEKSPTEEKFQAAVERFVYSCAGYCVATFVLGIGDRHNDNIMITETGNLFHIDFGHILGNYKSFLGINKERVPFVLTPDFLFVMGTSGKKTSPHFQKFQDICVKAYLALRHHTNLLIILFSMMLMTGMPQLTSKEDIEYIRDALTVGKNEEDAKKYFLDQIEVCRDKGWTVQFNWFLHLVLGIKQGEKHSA

[36] = test system: Receptor-type tyrosine-protein kinase FLT3 (Homo sapiens), P36888 [D835Y]; experiment: Inhibition of human FLT3 D835Y mutant at 1 uM
[37] = Metabolic stability in Sprague-Dawley rat liver microsomes assessed as compound remaining at 5 ug/ml incubated for 1 hr in presence of NADPH by LC-MS/MS analysis; type: ADME, Microsome; details: at 5 µg/mL, read-out: Stability
[38] = Metabolic stability in Sprague-Dawley rat liver microsomes assessed as intrinsic clearance at 5 ug/ml incubated for 1 hr in presence of NADPH by LC-MS/MS analysis; type: ADME, Microsome; details: dose 5 µg/ml

IC50 [2]: 9.85 µM | Stability [3]: Stable | IC50 [8]: > 10 µM | MRT last at 24 h [10]: 1.7 h | inhibition [11]: Active | IC50 [12]: 3.32 µM | IC50 [13]: 13.7 µM | IC50 [15]: 0.601 µM | MRT inf [20]: 1.8 h | inhibition [21]: Active | half-life [23]: 5.8 h | IC50 [24]: 0.75 µM | Cmax [25]: 6000 ng/mL | IC50 [28]: > 10 µM | IC50 [31]: > 10 µM | IC50 [32]: 3.79 µM | IC50 [35]: 0.2 µM | inhibition [36]: Active | remaining at 1 h, 5 ug/ml [37]: 82.3% | CLH [38]: 6 µL/min/mg
SMILES: Nc1nc2cc(-c3ccc4ncc(N5C[C@@H]6OCCO[C@@H]6C5)nc4c3)ccc2o1
Activity [1]: 24.8% | Activity [4]: Active | Activity [5]: Active | IC50 [6]: 54 µM | Activity [7]: Active | Activity [9]: Active | Activity [14]: Active | Activity [16]: Dose-Dependent Effect | Activity [17]: Active | Activity [18]: Active | inhibition [19]: Dose-Dependent Effect | Activity [22]: Active | Activity [26]: 19% | Activity [27]: Active | Activity [29]: Dose-Dependent Effect | Activity [30]: Toxic | Activity [33]: 27.03% | inhibition [34]: Dose-Dependent Effect
